Data on five compounds can be found in publication PMC10671313, “First Gallium and Indium Crystal Structures of Curcuminoid Homoleptic Complexes: All-Different Ligand Stereochemistry and Cytotoxic Potential” (International Journal of Molecular Sciences, 2023).

“Also recorded” adds a separate entry of the source. Like-named read-outs stand apart in the source and are kept apart here.

Holding throughout (type): cell-based
Data set [1] concerns U251 (human glioblastoma). Put plainly: SRB cytotoxicity assay, U251 cells. As for the experimental part:
(§1) The cytotoxicity of all compounds was assessed against several cancer cell lines, namely U251 (human glioblastoma), PC-3 (human prostate adenocarcinoma), K562 (human chronic myelogenous leukemia), HCT-15 (human colon adenocarcinoma), MCF-7 (human mammary adenocarcinoma), SKLU-1 (human lung adenocarcinoma), and COS-7 (non-tumoral monkey kidney). These cell lines were obtained from the U.S. National Cancer Institute (NCI) (Montgomery County, MD, USA). The cells were cultured in RPMI-1640 medium supplemented with 10% fetal bovine serum, 2 mM L-glutamine, 10,000 units/mL penicillin G sodium, 10,000 μg/mL streptomycin sulfate, 25 μg/mL amphotericin B (Invitrogen/Gibco^TM, Thermo Fisher Scientific, Waltham, MA, USA), and 1% non-essential amino acids (Gibco). They were maintained at a temperature of 37 °C in a humidified atmosphere containing 5% CO2. The experiment’s cell viability exceeded 95%, as determined using trypan blue staining. To evaluate the cytotoxicity on human tumor cells, the protein-binding dye sulforhodamine B (SRB) was employed in a microculture assay, following the protocols established by the NCI [52, 53, 54]. The results were reported as IC50 values, representing the inhibitory concentration required for 50% inhibition. The IC50 values were determined using the Monks protocol, which involved plotting dose-response curves for each compound and estimating the concentration (IC50) at which a 50% inhibition was observed through non-linear regression analysis.
Background: Sulforhodamine B stains cellular protein and so reports cell mass.

Data set [2] has as its system PC-3 (human prostate adenocarcinoma). Put plainly: SRB cytotoxicity assay, PC-3 cells. As for the experimental part:
as §1

In data set [3] the test system is K562 (human chronic myelogenous leukemia). Nature of the data set: SRB cytotoxicity assay, K562 cells. As for the experimental part:
as §1

In data set [4] the test system is HCT-15 (human colon adenocarcinoma). Nature of the data set: SRB cytotoxicity assay, HCT-15 cells. As for the experimental part:
as §1

For data set [5], the system named is MCF-7 (human mammary adenocarcinoma). Nature of the data set: SRB cytotoxicity assay, MCF-7 cells. As for the experimental part:
as §1

Data set [6] relates to SKLU-1 (human lung adenocarcinoma). Put plainly: SRB cytotoxicity assay, SKLU-1 cells. As for the experimental part: as §1
In data set [7] the test system is COS-7 (non-tumoral monkey kidney). Put plainly: SRB cytotoxicity assay, COS-7 non-tumoral cells. As for the experimental part:
as §1

The mark [8] stands for this setting: U251 cell line, SRB assay, read-out: IC50 U251.
The mark [9] stands for this setting: PC-3 cell line, SRB assay, read-out: IC50 PC-3.
[10] abbreviates: K562 cell line, SRB assay, read-out: IC50 K562.
[11] abbreviates: HCT15 cell line, SRB assay, read-out: IC50 HCT15.
[12] abbreviates: MCF7 cell line, SRB assay, read-out: IC50 MCF7.
Where [13] appears, read: SKLU-1 cell line, SRB assay, read-out: IC50 SKLU-1.
Setting [14] is: non-cancerous COS-7 cells, SRB assay, read-out: IC50 COS-7.

Usually IC50 stands for the concentration needed to halve the response being measured. Regarding `COc1ccc(/C=C/C(=O)/C=C(O)/C=C/c2ccc(OC)c(OC)c2)cc1OC` [DiMeOC, Dimethoxycurcumin], the IC50 in data set [1] (Homo sapiens, U-251, read-out: IC50 U251) was 2.02 ± 0.07 µM; in data set [2] (Homo sapiens, PC-3, read-out: IC50 PC-3) it was 5.9 ± 0.6 µM; in data set [3] (Homo sapiens, K562, read-out: IC50 K562) it was 6.5 ± 1.4 µM; in data set [4] (Homo sapiens, HCT-15, read-out: IC50 HCT15), 6.6 ± 0.3 µM; in data set [5] (Homo sapiens, MCF7, read-out: IC50 MCF7), 6.9 ± 1 µM; in data set [6] (Homo sapiens, SK-LU-1, read-out: IC50 SKLU-1) it was 7.2 ± 0.4 µM. In addition, the IC50 in data set [7] (Primates, COS-7, read-out: IC50 COS-7) came to 2.02 ± 0.07 µM.
Regarding Curcumin [reference compound], the IC50 turned out to be 20.5 ± 1.7 µM in data set [1] (setting [8]); 22.5 ± 1.9 µM in data set [2] (setting [9]); 16.4 ± 0.04 µM in data set [3] (setting [10]); 21.3 ± 0.9 µM in data set [4] (setting [11]); 18.4 ± 0.9 µM in data set [5] (setting [12]); 12.9 ± 0.7 µM in data set [6] (setting [13]). In data set [7] (setting [14]), the IC50 was 21.8 ± 2.1 µM.
Consider `N.N.[Cl][Pt][Cl]` [Cisplatin, reference compound], for which, in data set [4] (setting [11]), the IC50 worked out at 10 ± 0.9 µM.
Take Dimethoxycurcumin indium [(DiMeOC)3-In]: the IC50 in data set [1] (setting [8]) amounted to 6.3 ± 0.6 µM; in data set [2] (setting [9]), 7.6 ± 0.05 µM; in data set [4] (setting [11]), 7.9 ± 0.2 µM; in data set [5] (setting [12]), 9.7 ± 0.4 µM; in data set [6] (setting [13]), 6.2 ± 0.4 µM.
For “Dimethoxycurcumin gallium [(DiMeOC)2-Ga]”, in data set [1] (COS-7 vs U251, times less cytotoxic), the “Selectivity: IC50 in COS-7 compared to U251” value was found to be 4 times. Moreover, the IC50 in data set [1] (setting [8]) was determined as 5.3 ± 0.1 µM; in data set [2] (setting [9]) it was 10.5 ± 0.3 µM; in data set [3] (setting [10]), 2 ± 0.2 µM; in data set [5] (setting [12]) it was 15.5 ± 0.4 µM; in data set [7] (setting [14]) it was 23.2 ± 1.9 µM. For the same compound, the “Selectivity: IC50 in COS-7 compared to PC-3” value in data set [2] (COS-7 vs PC-3, times less cytotoxic) is 2 times. In addition, the “Selectivity: IC50 in COS-7 compared to K562” value in data set [3] (COS-7 vs K562, times less cytotoxic) amounted to 11 times. Besides, the “Toxicity relative to cisplatin” value in data set [7] (lower toxicity than cisplatin (non-cancerous COS-7)) is reported as “three times lesser toxicity than cisplatin; also recorded: up to three times lower toxicity than cisplatin”.
